Test results published in ChEMBL document CHEMBL4480432, “Expansion of a novel lead targeting M. tuberculosis DHFR as antitubercular agents” (Bioorg Med Chem, 2019).
Values after ≈ are worked out from the molar mass of the structure shown.

Assays:
[1] = tested on: Mycobacterium tuberculosis; test: microbe, parasite or virus in culture; conditions: H37Rv ATCC 27294, 168 h
Description: Antitubercular activity against Mycobacterium tuberculosis H37Rv ATCC 27294 after 7 days by microplate alamar blue method

Dihydrofolate reductase [2] = molecular target: T1, Dihydrofolate reductase (Mycobacterium tuberculosis, UniProt P9WNX1); test: Inhibition of Mycobacterium tuberculosis H37Rv DHFR expressed in Escherichia coli BL21(DE3) assessed as reduction in consumption of NADPH using DHF as substrate preincubated for 1 min followed by DHF addition and measured for 2 mins by spectrophotometric method
T1 sequence (P9WNX1 whole entry): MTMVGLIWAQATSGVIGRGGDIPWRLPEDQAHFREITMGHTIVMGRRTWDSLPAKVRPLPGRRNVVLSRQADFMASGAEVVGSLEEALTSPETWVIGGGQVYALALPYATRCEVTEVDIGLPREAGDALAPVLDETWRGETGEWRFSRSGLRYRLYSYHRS

Dihydrofolate reductase [3] = molecular target: T2, Dihydrofolate reductase (Homo sapiens, UniProt P00374); test: Inhibition of human DHFR assessed as reduction in consumption of NADPH using DHF as substrate preincubated for 1 min followed by DHF addition and measured for 2 mins by spectrophotometric method
T2 sequence (P00374 whole entry): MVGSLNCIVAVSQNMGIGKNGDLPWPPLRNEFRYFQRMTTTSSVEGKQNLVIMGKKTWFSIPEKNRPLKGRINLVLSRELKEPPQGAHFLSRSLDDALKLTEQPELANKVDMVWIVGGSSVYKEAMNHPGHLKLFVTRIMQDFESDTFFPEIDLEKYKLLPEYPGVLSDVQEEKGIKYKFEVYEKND

[4] = tested on: DHFR (human versus Mycobacterium tuberculosis H37Rv); test: Selectivity index, ratio of IC50 for human DHFR to IC50 for Mycobacterium tuberculosis H37Rv DHFR expressed in Escherichia coli BL21(DE3); format: toxicity; conditions: human and Mycobacterium tuberculosis H37Rv; read-out: Ratio IC50

Row | SMILES | MIC [1] [µM] | further results
1 | CC(=O)c1c(C)n(Cc2ccccc2)c2ccc(OCc3cn(-c4ccc(C)cc4)nn3)cc12 | 55.5 (≈ 25 µg/mL) | 
2 | CCOC(=O)c1c(C)n(Cc2ccccc2)c2ccc(OCc3cn(-c4ccc(C)cc4)nn3)cc12 | 26 (≈ 12.5 µg/mL) | 
3 | CCOC(=O)c1c(C)n(Cc2ccccc2)c2ccc(OCc3cn(-c4ccc(Br)cc4)nn3)cc12 | 45.9 (≈ 25.1 µg/mL) | 
4 | CC(=O)c1c(C)n(Cc2ccccc2)c2ccc(OCCCC(=O)O)cc12 |  | IC50 (Dihydrofolate reductase [2]): 25 µM
5 | CCOC(=O)c1c(C)n(Cc2ccccc2)c2ccc(OCc3cn(-c4ccc(F)cc4)nn3)cc12 | 51.6 (≈ 25 µg/mL) | 
6 | CC(=O)c1c(C)n(Cc2ccccc2)c2ccc(OCc3cn(-c4ccc(F)cc4)nn3)cc12 | 55 (≈ 25 µg/mL) | 
7 | CCOC(=O)c1c(C)n(Cc2ccccc2)c2ccc(OCc3cn(-c4ccccc4OC)nn3)cc12 | 50.4 (≈ 25 µg/mL) | 
8 | CCOC(=O)c1c(C)n(Cc2ccccc2)c2ccc(OCc3cn(-c4cccc(Cl)c4)nn3)cc12 | 50.2 (≈ 25.1 µg/mL) | 
9 | CCOC(=O)c1c(C)n(Cc2ccccc2)c2ccc(OCc3cn(-c4ccc(C#N)cc4)nn3)cc12 | 12.7 (≈ 6.25 µg/mL) | 
10 | COc1ccccc1-n1cc(COc2ccc3c(c2)c(C(C)=O)c(C)n3Cc2ccccc2)nn1 | 53.6 (≈ 25 µg/mL) | 
11 | CCOC(=O)c1c(C)n(Cc2ccccc2)c2ccc(OCc3cn(-c4ccc(CC)cc4)nn3)cc12 | 50.6 (≈ 25 µg/mL) | 
12 | CC(=O)c1c(C)n(Cc2ccccc2)c2ccc(OCc3cn(-c4ccc(C#N)cc4)nn3)cc12 | 54.2 (≈ 25 µg/mL) | 
13 | CCc1ccc(-n2cc(COc3ccc4c(c3)c(C(C)=O)c(C)n4Cc3ccccc3)nn2)cc1 | 26.9 (≈ 12.5 µg/mL) | 
14 | CC(=O)c1c(C)n(Cc2ccccc2)c2ccc(OCc3cn(-c4ccc(C(F)(F)F)cc4)nn3)cc12 | 49.5 (≈ 25 µg/mL) | 
15 | CC(=O)c1c(C)n(Cc2ccccc2)c2ccc(OCc3cn(-c4ccc(Cl)cc4)nn3)cc12 | 53.1 (≈ 25 µg/mL) | 
16 | CCOC(=O)c1c(C)n(Cc2ccccc2)c2ccc(OCc3cn(-c4ccc(C(F)(F)F)cc4)nn3)cc12 | 46.8 (≈ 25 µg/mL) | 
17 | CC(=O)c1c(C)n(Cc2ccccc2)c2ccc(OCc3cn(-c4cccc(Cl)c4)nn3)cc12 | 6.64 (≈ 3.13 µg/mL) | IC50 (Dihydrofolate reductase [3]): 180 µM; selectivity ratio [4]: 4.17; IC50 (Dihydrofolate reductase [2]): 43.1 µM
18 | CCOC(=O)c1c(C)n(Cc2ccccc2)c2ccc(OCc3cn(-c4ccc([N+](=O)[O-])cc4)nn3)cc12 | 48.9 (≈ 25 µg/mL) | 
19 | CC(=O)c1c(C)n(Cc2ccccc2)c2ccc(OCc3cn(-c4ccc([N+](=O)[O-])cc4)nn3)cc12 | 12.9 (≈ 6.21 µg/mL) | 
20 | CC(=O)c1c(C)n(Cc2ccccc2)c2ccc(OCc3cn(-c4ccc(C)c(C)c4)nn3)cc12 | 53.8 (≈ 25 µg/mL) | 
21 | O=C(O)c1cn(C2CC2)c2cc(N3CCNCC3)c(F)cc2c1=O [CIPROFLOXACIN] | 4.7 (≈ 1.56 µg/mL) | 
22 | CC[C@@H](CO)NCCN[C@@H](CC)CO [ETHAMBUTOL] | 16.5 (≈ 3.37 µg/mL) | 
23 | NNC(=O)c1ccncc1 [ISONIAZID] | 0.73 (≈ 0.1 µg/mL) | 
24 | CN(Cc1cnc2nc(N)nc(N)c2n1)c1ccc(C(=O)N[C@@H](CCC(=O)O)C(=O)O)cc1 [METHOTREXATE] | 3.38 (≈ 1.54 µg/mL) | 
25 | CO[C@H]1/C=C/O[C@@]2(C)Oc3c(C)c(O)c4c(O)c(c(/C=N/N5CCN(C)CC5)c(O)c4c3C2=O)NC(=O)/C(C)=C\C=C\[C@H](C)[C@H](O)[C@@H](C)[C@@H](O)[C@@H](C)[C@H](OC(C)=O)[C@@H]1C [RIFAMPIN] | 0.25 (≈ 0.206 µg/mL) | 
